What was measured:
Rat dopaminergic neurons = test: Dopaminergic neuron survival with MPP+ intoxication; type: cell-based; conditions: MPP+ 16 μM, 48 hours
Method: Rat dopaminergic neurons were cultured as described by Schinelli et al., 1988. Briefly pregnant female rats of 15 days gestation were killed by cervical dislocation (Rats Wistar; Janvier) and the fetuses removed from the uterus. The embryonic midbrains were removed and placed in ice-cold medium of Leibovitz (L15; Invitrogen) containing 1% of Penicillin-Streptomycin (PS; Invitrogen) and 1% of bovine serum albumin (BSA; Sigma). Only the ventral portions of the mesencephalic flexure were used for the cell preparations as this is the region of the developing brain rich in dopaminergic neurons.
The midbrains were dissociated by trypsinisation for 20 min at 37° C. (10% of trypsin EDTA 10×; Invitrogen) diluted in PBS without calcium and magnesium. The reaction was stopped by the addition of Dulbecco's modified Eagle's medium (DMEM; Invitrogen) containing DNAase I grade II (0.1 mg/ml; Roche Diagnostic;) and 10% of fetal calf serum (FCS; Invitrogen). Cells were then mechanically dissociated by 3 passages through a 10 ml pipette. Cells were then centrifuged at 180×g for 10 min at room temperature on a layer of BSA (3.5%) in L15 medium. The supernatant was discarded and the cells of pellet were re-suspended in a defined culture medium consisting of Neurobasal (Invitrogen) supplemented with B27 (2%; Invitrogen), L-glutamine (0.2 mM; Invitrogen) and 1% of PS solution. Viable cells were counted in a Neubauer cytometer using the trypan blue exclusion test.
The cells were seeded at a density of 69 000 cells/well in 96 well-plates (wells were pre-coated with poly-L-lysine (10 μg/ml; Sigma)) and were cultured at 37° C. in a humidified air (95%)/CO2 (5%) atmosphere. Half of the medium was changed every 2 days with fresh medium. In these conditions, after 5 days of culture, astrocytes were present in the culture and release growth factor allowing neurons differentiation. Three to five percent of the neuronal cell population were dopaminergic neurons.
On day 6, the medium was removed and fresh medium was added with or without MPP^+ at 16 μM and with or without test substance. After 48 hours of intoxication (day 8 of culture), the cells were fixed with PFA 4%. Dopaminergic neurons were labeled by a monoclonal anti-tyrosine hydroxylase (TH) antibody (Sigma). This antibody labels the neurites and cell bodies of dopaminergic neurons. […] For each condition, 2×10 pictures per well were taken using InCell Analyzer™ 1000 (Amersham Biosciences) with 10× magnification. All the images were taken in the same conditions.
Analysis of the neurite length and number of neurons labeled with anti tyrosine hydroxylase (TH) antibodies with or without MPP+ intoxication was carried out using InCell Analyzer™ 1000 3.2.Workstation software. Dopaminergic neurons and total length neurites were counted on the 10 pictures (12 analyses by culture condition).

RET via GFRα = biological target: T1, RET via GFRα (UniProt P07949+Q62997); test: RET phosphorylation assay by immunoprecipitation and Western blotting (FIG. 4); type: cell-based; conditions: FIG. 4 lanes; active / inactive
T1 construct: Full-length flag-tagged rat Gfrα1 cDNA; FLAG; expressed in transfected cells; host or cells: αLUC cells: MG87RET murine fibroblasts stably transfected with GFRα1 plasmid, Gal4-Luc and Gal4-Elk
T1 sequence (Q62997 25-430 limits assumed): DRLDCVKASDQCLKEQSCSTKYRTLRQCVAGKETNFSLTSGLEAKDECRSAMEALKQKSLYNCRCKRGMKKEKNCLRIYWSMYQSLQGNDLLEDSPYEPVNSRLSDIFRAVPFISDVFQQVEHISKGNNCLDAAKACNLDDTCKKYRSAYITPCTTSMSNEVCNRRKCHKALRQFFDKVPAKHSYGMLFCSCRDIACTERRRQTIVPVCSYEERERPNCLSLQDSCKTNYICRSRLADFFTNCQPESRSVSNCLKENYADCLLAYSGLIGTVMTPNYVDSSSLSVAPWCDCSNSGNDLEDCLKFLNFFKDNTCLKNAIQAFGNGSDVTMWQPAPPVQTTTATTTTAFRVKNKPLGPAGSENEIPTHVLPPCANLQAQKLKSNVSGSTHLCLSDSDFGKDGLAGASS
T1 sequence (P07949 29-1114): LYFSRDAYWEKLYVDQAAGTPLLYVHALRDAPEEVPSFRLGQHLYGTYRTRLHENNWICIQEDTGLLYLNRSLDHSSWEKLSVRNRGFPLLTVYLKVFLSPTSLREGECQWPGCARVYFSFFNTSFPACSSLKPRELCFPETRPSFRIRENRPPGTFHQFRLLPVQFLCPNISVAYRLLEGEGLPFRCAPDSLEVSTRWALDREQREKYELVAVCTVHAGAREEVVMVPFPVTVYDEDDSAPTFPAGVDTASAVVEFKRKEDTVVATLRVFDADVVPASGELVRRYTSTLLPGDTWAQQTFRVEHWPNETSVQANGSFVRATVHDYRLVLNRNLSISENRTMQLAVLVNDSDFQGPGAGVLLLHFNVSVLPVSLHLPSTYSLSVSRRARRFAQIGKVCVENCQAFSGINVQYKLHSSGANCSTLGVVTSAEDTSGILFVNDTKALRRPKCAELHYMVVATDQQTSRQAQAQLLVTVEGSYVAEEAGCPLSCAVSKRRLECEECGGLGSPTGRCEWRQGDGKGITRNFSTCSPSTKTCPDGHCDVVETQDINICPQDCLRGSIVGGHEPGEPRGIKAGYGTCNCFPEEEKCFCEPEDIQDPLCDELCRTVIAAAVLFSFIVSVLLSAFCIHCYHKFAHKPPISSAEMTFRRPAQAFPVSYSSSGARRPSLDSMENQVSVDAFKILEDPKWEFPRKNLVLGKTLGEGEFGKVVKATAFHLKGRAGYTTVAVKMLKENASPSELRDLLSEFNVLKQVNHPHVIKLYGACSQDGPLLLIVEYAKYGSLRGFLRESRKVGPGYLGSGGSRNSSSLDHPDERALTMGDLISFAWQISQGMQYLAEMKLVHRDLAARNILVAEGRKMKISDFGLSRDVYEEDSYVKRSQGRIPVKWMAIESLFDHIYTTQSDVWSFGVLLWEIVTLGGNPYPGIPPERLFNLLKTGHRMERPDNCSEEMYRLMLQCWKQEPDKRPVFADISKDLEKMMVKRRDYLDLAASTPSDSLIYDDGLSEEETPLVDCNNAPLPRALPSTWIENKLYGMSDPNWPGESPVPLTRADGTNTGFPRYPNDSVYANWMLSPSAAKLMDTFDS
Method: αLUC and NOα cells plated on 35 mm tissue culture dishes were starved for 4 hours in serum-free DMEM and stimulated with 500 ng/ml of PSPN or 100 ng/ml of GDNF (positive control) for 15 min. […] The membranes were washed 3 times for 5 min in TBS-T and incubated in the 1:3000 solution of secondary anti-mouse antibodies conjugated with HRP (DAKO) diluted in TBS-T containing 3% nonfat dry milk for 45 min at room temperature. Membranes were washed with TBS-T for 5×10 min. Stained bands were visualized with ECL reagent (Pierce) using LAS3000 imaging program. […] We used secondary anti-goat antibodies conjugated with HRP (1:1500, DAKO) to detect C-20.

6-OHDA-treated rats = test: Side effects / toxic effects after intrastriatal injection in 6-OHDA-treated rats; type: in vivo; conditions: injected intrastriatally
Method: (§1) GDNF mimetics compounds, GDNF or vehicle is administered to the striatum at 3 weeks after the exposure to the neurotoxin 6-OHDA. The selective damage to dopaminergic neurons in the SNc, as well as striatal levels of dopamine and its metabolites are evaluated 12 weeks after the injection of 6-OHDA with tyrosine hydroxylase (TH) immunohistochemistry and HPLC, respectively. In addition, the behavioral impairment of rats is evaluated by forelimb asymmetry test (cylinder test), amphetamine induced rotation asymmetry test and Y-maze test for stereotypic spontaneous rotation deficits.
(§2) On day 21, rats are re-anesthetized with 5% isoflurane (in 70% N2O and 30% O2; flow 300 ml/min) and placed in a stereotactic frame. During the operation concentration of anesthetic is reduced to 1-1.5%. The rectal temperature is maintained at 37.0±1.0° C. with a homeothermic blanket system. The right brain hemisphere is exposed through a small craniectomy to the skull. A stereotaxic injection of the test compound, GDNF or vehicle is made into the right striatum. Each dosing solution is infused at a speed of 1 μl/min and is equally distributed between 4 sites at the following coordinates: AP+1.0, ML+2.8, DV−6.0, −5.5, −5.0 and −4.4 mm. The cannula is left in place for another 5 min before being withdrawn. The hole in the skull is subsequently filled with repair material and the skin is closed and disinfected. The rats are allowed to recover from anesthesia and are carefully monitored for possible post surgical complications. The animals are returned to the home cages with ad libitum access to food and water.
Animals are monitored daily by laboratory personnel. […] Definitions of acceptable endpoints include: no spontaneous movements and inability to drink or eat in 24-h observation period, massive bleeding, spontaneous inflammation, missing anatomy, swelling or tumors larger than 20 mm, and inability to right itself in 30 sec period.

6-OHDA lesioned rats = test: Amphetamine induced rotation asymmetry in 6-OHDA rat model of Parkinson's disease (FIG. 7); type: in vivo
Text: The objective of this study is to investigate the effect of intrastriatally (i.s.) administered small molecule GDNF mimetics (compounds 13, 16, 319H6 and 292651, structures shown in the description of the Figures, above) in a rat model 6-OHDA of Parkinson's disease. In the sub-acute lesion model used in this study, the lesion of the substantia nigra (SNc) that slowly progresses over weeks is created by injection of 6-OHDA into the proximity of the dopaminergic terminals in the striatum (Kirik-D 1998, Exp. Neurol. 152:259-277). In this model, a portion of the nigrostriatal projection is left intact, which can serve as a substrate for regeneration and functional recovery in response to growth promoting and neuroprotective agents.
as §1
Animals: All animal experiments are carried out according to the National Institute of Health (NIH) guidelines for the care and use of laboratory animals, and approved by the State Provincial Office of Southern Finland. Altogether 108 male Wistar rats, purchased from Charles River, Germany and weighing 220-275 g are used for the experiment. Animals are housed at a standard temperature (22±1° C.) and in a light-controlled environment (lights on from 7 am to 8 pm) with ad libitum access to food and water. Animals are grouped as follows:
as §2, with “In order to generate partial retrograde degeneration into the SNc, 6-OHDA lesioning is carried out according to Sauer and Oertel with modifications (Sauer and Oertel, 1994). Male Wistar rats” for “On day 21, rats”, “are anesthetized” for “are re-anesthetized”, “skull. The dura mater is carefully removed with fine forceps and a” for “skull. A”, “of 6-OHDA (4 μg/μl)” for “of the test compound, GDNF or vehicle”, “striatum. A total of 7 μl of 6-OHDA” for “striatum. Each dosing solution”, “of 0.5” for “of 1”
as §2, with “The rats are allowed to recover from anesthesia and are carefully monitored for possible post surgical complications. The animals are returned to the home cages with ad libitum access to food and water.” left out

Molecule: CCN(CC)S(=O)(=O)c1ccc(OC)c(N2CCN(C(=O)c3ccc(F)cc3C(F)(F)F)CC2)c1 [319H6]
- % Cytoprotection vs controls (Rat dopaminergic neurons; 0.1 μM): 9%
- % TH+ Neurons (Rat dopaminergic neurons; 0.1 μM): 59%
- % Cytoprotection vs controls (Rat dopaminergic neurons; 1 μM): 33%
- % TH+ Neurons (Rat dopaminergic neurons; 1 μM): 70%
- % Cytoprotection vs controls (Rat dopaminergic neurons; 10 μM): 36%
- % TH+ Neurons (Rat dopaminergic neurons; 10 μM): 71%

Molecule: CCN(CC)CCCC(C)Nc1ccnc2cc(Cl)ccc12 (stereo not drawn) [chloroquine]
- RET activation (phosphotyrosine Western blot of immunoprecipitated RET) (RET via GFRα): inactive

Molecule: CCN(CC)CCCCCCNc1ccnc2cc(Cl)ccc12 [compound 108]
- RET activation (phosphotyrosine Western blot of immunoprecipitated RET) (RET via GFRα): inactive

Molecule: OCCNCCNc1c2ccccc2nc2cc(Cl)ccc12 [compound 13005]
- RET activation (phosphotyrosine Western blot of immunoprecipitated RET) (RET via GFRα): inactive

Molecule: CC(CCCN(C)Cc1ccccc1)Nc1ccnc2cc(Cl)ccc12 (stereo not drawn) [compound 143511]
- RET activation (phosphotyrosine Western blot of immunoprecipitated RET) (RET via GFRα): active

Molecule: CCN(CC)CCCC(C)Nc1cc(/C=C/c2ccc(Cl)cc2)nc2ccc(N(C)C)cc12 (stereo not drawn) [compound 219902]
- RET activation (phosphotyrosine Western blot of immunoprecipitated RET) (RET via GFRα): active

Molecule: CCN(CC)CCCC(C)Nc1cc(/C=C/c2ccc(Cl)cc2)nc2cc(N(C)C)ccc12 (stereo not drawn) [compound 292651]
- toxic effects in behavioral assays (6-OHDA-treated rats): did not cause toxic effects
- amphetamine-induced ipsilateral rotation (6-OHDA lesioned rats; 1 ug intrastriatal, 3 weeks after 6-OHDA, measured 6 weeks after 6-OHDA): reduced amphetamine-induced ipsilateral rotation
- amphetamine-induced ipsilateral rotation of lesioned rats (6-OHDA lesioned rats; injected into striatum 3 weeks after 6-OHDA, dose not stated): significantly reduce
- RET activation (phosphotyrosine Western blot of immunoprecipitated RET) (RET via GFRα): active

Molecule: Clc1ccc2c(NCCCCCCNc3ccnc4cc(Cl)ccc34)ccnc2c1 [compound 349051]
- RET activation (phosphotyrosine Western blot of immunoprecipitated RET) (RET via GFRα): inactive

B1: BDNF: native brain-derived neurotrophic factor, comparator in the neuron survival assay (protein, UniProt P23560 19-247, looked up)
Neurotrophic factor BDNF …: APMKEANIRGQGGLAYPGVRTHGTLESVNGPKAGSRGLTSLADTFEHVIEELLDEDQKVRPNEENNKDADLYTSRVMLSSQVPLEPPLLFLLEEYKNYLDAANMSMRVRRHSDPARRGELSVCDSISEWVTAADKKTAVDMSGGTVTVLEKVPVSKGQLKQYFYETKCNPMGYTKEGCRGIDKRHWNSQCRTTQSYVRALTMDSKKRIGWRFIRIDTSCVCTLTIKRGR
- % Cytoprotection vs controls (Rat dopaminergic neurons; 10 ng/mL): 49%
- % TH+ Neurons (Rat dopaminergic neurons; 10 ng/mL): 77%

From US8901129B2, “Methods of facilitating neural cell survival using GDNF family ligand (GFL) mimetics or RET signaling pathway activators” (GeneCode AS, priority 2009, dated 2014)
